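Where inhibition never reached the appropriate level, the endpoint shown equals the highest concentration tested. Otherwise, values were interpolated linearly from a five-concentration, 48-hour dose response in 96-well plates. GI50 = concentration required for 50% inhibition of growth.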 Calls of active or inactive are those of the source. Rule as the data show it: active = GI50 up to about 1.1 µM and inactive = higher.
How the values were obtained:
Assay in all cases: DTP human tumour cell line panel, 48 h
786-0 = tested on: 786-0
A549 = tested on: A549
ACHN = tested on: ACHN
CAKI-1 = tested on: CAKI-1
CCRF-CEM = tested on: CCRF-CEM
COLO 205 = tested on: COLO 205
DLD-1 = tested on: DLD-1
DMS-114 = tested on: DMS-114
DMS-273 = tested on: DMS-273
EKVX = tested on: EKVX
HCC 2998 = tested on: HCC 2998
HCT-15 = tested on: HCT-15
HL-60 = tested on: HL-60
HOP-18 = tested on: HOP-18
HOP-62 = tested on: HOP-62
HT-29 = tested on: HT-29
IGROV-1 = tested on: IGROV-1
K562 = tested on: K562
KM-20L2 = tested on: KM-20L2
KM12 = tested on: KM12
LOX IMVI = tested on: LOX IMVI
LXFL 529 = tested on: LXFL 529
M14 = tested on: M14
M19-MEL = tested on: M19-MEL
MOLT-4 = tested on: MOLT-4
Malme-3M = tested on: Malme-3M
NCI-H226 = tested on: NCI-H226
NCI-H23 = tested on: NCI-H23
NCI-H460 = tested on: NCI-H460
NCI-H522 = tested on: NCI-H522
OVCAR-3 = tested on: OVCAR-3
OVCAR-4 = tested on: OVCAR-4
OVCAR-5 = tested on: OVCAR-5
OVCAR-8 = tested on: OVCAR-8
RPMI-8226 = tested on: RPMI-8226
RXF 393 = tested on: RXF 393
RXF 631 = tested on: RXF 631
SF-268 = tested on: SF-268
SF-295 = tested on: SF-295
SF-539 = tested on: SF-539
SK-MEL-28 = tested on: SK-MEL-28
SK-MEL-2 = tested on: SK-MEL-2
SK-MEL-5 = tested on: SK-MEL-5
SK-OV-3 = tested on: SK-OV-3
SN12C = tested on: SN12C
SNB-19 = tested on: SNB-19
SNB-75 = tested on: SNB-75
SW-620 = tested on: SW-620
TK-10 = tested on: TK-10
U-251 = tested on: U-251
UACC-257 = tested on: UACC-257
UACC-62 = tested on: UACC-62
UO-31 = tested on: UO-31
XF498 = tested on: XF498
A498 = tested on: A498
HCT-116 = tested on: HCT-116
SR = tested on: SR
HOP-92 = tested on: HOP-92
SNB-78 = tested on: SNB-78

N=C(N)NNC(=O)CCn1[nH]c(=O)c(Cl)c(Cl)c1=O
GI50 (786-0): > 100 µM (inactive) | GI50 (A549): > 100 µM (inactive) | GI50 (ACHN): > 100 µM (inactive) | GI50 (CAKI-1): > 100 µM (inactive) | GI50 (CCRF-CEM): > 100 µM (inactive) | GI50 (COLO 205): > 100 µM (inactive) | GI50 (DLD-1): > 100 µM (inactive) | GI50 (DMS-114): > 100 µM (inactive) | GI50 (DMS-273): > 100 µM (inactive) | GI50 (EKVX): > 100 µM (inactive) | GI50 (HCC 2998): > 100 µM (inactive) | GI50 (HCT-15): > 100 µM | GI50 (HL-60): > 100 µM (inactive) | GI50 (HOP-18): > 100 µM (inactive) | GI50 (HOP-62): > 100 µM (inactive) | GI50 (HT-29): > 100 µM (inactive) | GI50 (IGROV-1): > 100 µM (inactive) | GI50 (K562): > 100 µM (inactive) | GI50 (KM-20L2): > 100 µM (inactive) | GI50 (KM12): > 100 µM (inactive) | GI50 (LOX IMVI): > 100 µM (inactive) | GI50 (LXFL 529): > 100 µM (inactive) | GI50 (M14): > 100 µM (inactive) | GI50 (M19-MEL): > 100 µM (inactive) | GI50 (MOLT-4): > 100 µM (inactive) | GI50 (Malme-3M): > 100 µM (inactive) | GI50 (NCI-H226): > 100 µM (inactive) | GI50 (NCI-H23): > 100 µM (inactive) | GI50 (NCI-H460): > 100 µM (inactive) | GI50 (NCI-H522): > 100 µM (inactive) | GI50 (OVCAR-3): > 100 µM (inactive) | GI50 (OVCAR-4): > 100 µM (inactive) | GI50 (OVCAR-5): > 100 µM (inactive) | GI50 (OVCAR-8): > 100 µM (inactive) | GI50 (RPMI-8226): > 100 µM (inactive) | GI50 (RXF 393): > 100 µM (inactive) | GI50 (RXF 631): > 100 µM (inactive) | GI50 (SF-268): > 100 µM (inactive) | GI50 (SF-295): > 100 µM (inactive) | GI50 (SF-539): > 100 µM (inactive) | GI50 (SK-MEL-28): > 100 µM (inactive) | GI50 (SK-MEL-2): > 100 µM (inactive) | GI50 (SK-MEL-5): > 100 µM (inactive) | GI50 (SK-OV-3): > 100 µM (inactive) | GI50 (SN12C): > 100 µM (inactive) | GI50 (SNB-19): > 100 µM (inactive) | GI50 (SNB-75): > 100 µM (inactive) | GI50 (SW-620): > 100 µM (inactive) | GI50 (TK-10): > 100 µM (inactive) | GI50 (U-251): > 100 µM (inactive) | GI50 (UACC-257): > 100 µM (inactive) | GI50 (UACC-62): > 100 µM (inactive) | GI50 (UO-31): > 100 µM (inactive) | GI50 (XF498): > 100 µM (inactive)

Fc1cccc2cc3ccc4cccc5ccc(c12)c3c45
GI50 (786-0): > 100 µM (inactive) | GI50 (A498): > 100 µM (inactive) | GI50 (A549): > 100 µM (inactive) | GI50 (ACHN): > 100 µM (inactive) | GI50 (CAKI-1): > 100 µM (inactive) | GI50 (CCRF-CEM): > 100 µM (inactive) | GI50 (COLO 205): > 100 µM (inactive) | GI50 (DLD-1): 0.509 µM (active) | GI50 (DMS-114): > 100 µM (inactive) | GI50 (DMS-273): 0.296 µM (active) | GI50 (EKVX): 2.66 µM (inactive) | GI50 (HCC 2998): 7.52 µM (inactive) | GI50 (HCT-116): > 100 µM (inactive) | GI50 (HL-60): > 100 µM (inactive) | GI50 (HOP-18): 1.72 µM (inactive) | GI50 (HOP-62): > 100 µM (inactive) | GI50 (HT-29): > 100 µM (inactive) | GI50 (IGROV-1): > 100 µM (inactive) | GI50 (K562): > 100 µM (inactive) | GI50 (KM-20L2): > 100 µM (inactive) | GI50 (KM12): > 100 µM (inactive) | GI50 (LOX IMVI): > 100 µM (inactive) | GI50 (LXFL 529): > 100 µM (inactive) | GI50 (M14): > 100 µM (inactive) | GI50 (M19-MEL): > 100 µM (inactive) | GI50 (MOLT-4): > 100 µM (inactive) | GI50 (Malme-3M): > 100 µM (inactive) | GI50 (NCI-H226): 7.66 µM (inactive) | GI50 (NCI-H23): 1.63 µM (inactive) | GI50 (NCI-H522): > 100 µM (inactive) | GI50 (OVCAR-3): > 100 µM (inactive) | GI50 (OVCAR-4): > 100 µM (inactive) | GI50 (OVCAR-5): 7.4 µM (inactive) | GI50 (OVCAR-8): > 100 µM (inactive) | GI50 (RXF 393): > 100 µM (inactive) | GI50 (RXF 631): > 100 µM (inactive) | GI50 (SF-268): > 100 µM (inactive) | GI50 (SF-295): > 100 µM (inactive) | GI50 (SF-539): > 100 µM (inactive) | GI50 (SK-MEL-28): > 100 µM (inactive) | GI50 (SK-MEL-5): > 100 µM (inactive) | GI50 (SK-OV-3): 0.771 µM (active) | GI50 (SN12C): > 100 µM (inactive) | GI50 (SNB-19): > 100 µM (inactive) | GI50 (SNB-75): > 100 µM (inactive) | GI50 (SR): 0.0146 µM (active) | GI50 (SW-620): > 100 µM (inactive) | GI50 (TK-10): 0.721 µM (active) | GI50 (U-251): > 100 µM (inactive) | GI50 (UACC-257): > 100 µM (inactive) | GI50 (UACC-62): > 100 µM (inactive) | GI50 (UO-31): > 100 µM (inactive) | GI50 (XF498): > 100 µM (inactive)

O=c1cc(-c2ccccc2)oc2cc(OCCSCCCCCCCCCCSCCOc3ccc4c(=O)cc(-c5ccccc5)oc4c3)ccc12
GI50 (786-0): 73.5 µM (inactive) | GI50 (A549): > 100 µM (inactive) | GI50 (ACHN): > 100 µM (inactive) | GI50 (CAKI-1): > 100 µM (inactive) | GI50 (CCRF-CEM): > 100 µM (inactive) | GI50 (COLO 205): > 100 µM (inactive) | GI50 (DLD-1): > 100 µM (inactive) | GI50 (DMS-114): > 100 µM (inactive) | GI50 (EKVX): > 100 µM (inactive) | GI50 (HCC 2998): > 100 µM (inactive) | GI50 (HCT-116): > 100 µM (inactive) | GI50 (HCT-15): > 100 µM | GI50 (HL-60): > 100 µM (inactive) | GI50 (HOP-18): > 100 µM (inactive) | GI50 (HOP-62): 51.9 µM (inactive) | GI50 (HOP-92): 43.5 µM (inactive) | GI50 (HT-29): > 100 µM (inactive) | GI50 (IGROV-1): > 100 µM (inactive) | GI50 (K562): > 100 µM (inactive) | GI50 (KM-20L2): > 100 µM (inactive) | GI50 (KM12): > 100 µM (inactive) | GI50 (LOX IMVI): > 100 µM (inactive) | GI50 (LXFL 529): > 100 µM (inactive) | GI50 (M14): > 100 µM (inactive) | GI50 (M19-MEL): > 100 µM (inactive) | GI50 (MOLT-4): > 100 µM (inactive) | GI50 (Malme-3M): > 100 µM (inactive) | GI50 (NCI-H23): > 100 µM (inactive) | GI50 (NCI-H522): 94.2 µM (inactive) | GI50 (OVCAR-3): > 100 µM (inactive) | GI50 (OVCAR-8): > 100 µM (inactive) | GI50 (RPMI-8226): > 100 µM (inactive) | GI50 (RXF 393): 37.2 µM (inactive) | GI50 (RXF 631): > 100 µM (inactive) | GI50 (SF-268): 74.3 µM (inactive) | GI50 (SF-295): > 100 µM (inactive) | GI50 (SK-MEL-28): > 100 µM (inactive) | GI50 (SK-MEL-2): > 100 µM (inactive) | GI50 (SK-MEL-5): > 100 µM (inactive) | GI50 (SK-OV-3): 74.1 µM (inactive) | GI50 (SN12C): > 100 µM (inactive) | GI50 (SNB-19): 51.2 µM (inactive) | GI50 (SNB-75): > 100 µM (inactive) | GI50 (SNB-78): 68.2 µM (inactive) | GI50 (SR): > 100 µM (inactive) | GI50 (SW-620): > 100 µM (inactive) | GI50 (TK-10): > 100 µM (inactive) | GI50 (U-251): > 100 µM (inactive) | GI50 (UACC-257): > 100 µM (inactive) | GI50 (UACC-62): 65.9 µM (inactive) | GI50 (UO-31): > 100 µM (inactive)
